Test results published in patent US11167006B2 (Shanghai Tianci Life Science Development Co., Ltd., priority 2016, dated 2021).
“Also recorded” adds a separate entry of the source. Square brackets hold non-standard residues; d marks the D form. Peptide text beside a SMILES is read from it. NMeF = CN[C@@H](Cc1ccccc1)C(=O)O

Tests used:
mice [1] = experiment: Conditional position preference test (CPP); assay type: in vivo, mouse; settings: subcutaneous 10 mg/kg
Procedure: The conditional position preference experimental device is a closed device (45×20×20 cm) assembled from transparent plexiglass plates. Two 20×20×20 cm conditional preference boxes are located at both ends of the device, with a small compartment 5×20×20 cm having a passage (5×5×5 cm) connected in the middle. On the first day of the experiment, the passage was kept open, the mice was placed into the device for 15 min, and the mice that had been explored for more than 9 min in any of the preference boxes were excluded. […] On day 5, the passage was kept opened again to ensure that the mice were free to enter into the two preference boxes, and the time that the mice stayed in the drug matching preference box within 15 minutes of the total time was recorded.
The experimental relevant data were expressed as mean±standard error (Means±S.E.M.), and the conditional position preference score represents the time spent on the drug matching preference box on day 5 of each mouse minus the time on the first day in this preference box. Differences between groups treated with different drugs in CPP trials were analyzed by one-way ANOVA (Tukey HSD test in one-way ANOVA) for data statistics and analysis.

mice [2] = experiment: Naloxone withdrawal test; assay type: in vivo, mouse; settings: s.c. at 8 hours intervals 20, 40, 60, 80, 100, 100, 100 mg/kg; naloxone 1 mg/kg; 30 minutes
[3] = test system: inflammatory pain in mice; experiment: Inflammatory pain model (Carrageenan or CFA); assay type: in vivo, mouse
Procedure: Inflammatory pain in mice was measured using a hot stinging apparatus and an electronic Von Frey tenderness instrument, and the basal pain threshold of normal mice was firstly determined. Then 20 μl of 2% Carrageenan solution or CFA solution was injected subcutaneously into the mouse paw. The thermal and mechanical pain sensitivity value values of the injected paw in mice were tested after 24 hours (Carrageenan) or 4 days (CFA), and then compound 9 was administered into lateral ventricle, intrathecally or subcutaneously, and the pain threshold at different time points after administration were recorded.
(§1) The experimental data were expressed as mean±standard error (Means±S.E.M.), and the data for differences between groups treated with different drug concentrations were analyzed by one-way ANOVA (Bonferroni test in one-way ANOVA) for statistics and analysis, ***P<0.001 represents that there was a significant difference between the pain threshold value of the drug-treated group and that of the saline group.

[4] = test system: CFA-induced inflammatory pain in mouse; experiment: Analgesic tolerance and cross-tolerance in CFA-induced inflammatory pain; assay type: in vivo
Procedure: CFA-induced inflammatory pain in mouse was detected by an electronic Von Frey tenderness instrument, and the basal pain threshold of normal mice was Firstly determined. Then […] of CFA solution was injected subcutaneously into the mouse paw. After 4 days, the mechanical pain sensitivity value of the injected paw of the mouse was measured. And then compound 9 or morphine was injected for 6 consecutive days (lateral ventricle) or 7 consecutive days (subcutaneously), and the mice in morphine group were given compound 9 on day 7 (lateral ventricle) or day 8 (subcutaneous). The mechanical pain thresholds at different time points after administration were recorded.
The experimental data were expressed as mean± standard error (Means±S.E.M.). Data for differences between groups treated with the same drug were analyzed by one-way ANOVA (Tukey HSD test of one-way ANOVA) for statistics and analysis, *P<0.05. **P<0.005, ***P<0.001 indicates a significant difference between the mechanical pain threshold of the drug-treated group and the pain threshold after the first day of administration.

[5] = test system: neuralgia induced by chronic compression of the sciatic nerve in mice; experiment: CCI neuralgia model (thermal and mechanical pain); assay type: in vivo, mouse
Procedure: The chronic compression model of the sciatic nerve (CCI) was mainly used for the mouse neuralgia. The detection method uses thermal tingling instrument and electronic Von Frey tenderness instrument to simultaneously detect thermal pain and mechanical pain. Firstly, the basic pain threshold of thermal pain and mechanical pain in normal mice were determined respectively. The mice were then anesthetized with sodium pentobarbital (i.p., 80 mg/kg mouse body weight) and the mice were fixed in the prone position. The right sciatic nerve was exposed and 3 mild ligation rings were made around the sciatic nerve using a 4-0 chromic catgut, 1 mm intervals. The ligation intensity is preferably a slight tremor in the right hind leg. On the 10th day after surgery, the thermal pain sensitivity value of the right hind paw of the mouse was measured, and then compound 9 was intrathecally or subcutaneously administered, and the thermal pain threshold at different time points after administration were recorded. On the 11th day after surgery, the mechanical pain sensitivity value of the right hind paw of the mouse was measured, and then Compound 9 was intrathecally or subcutaneously administered, and the mechanical pain threshold at different time points after administration were recorded.
as §1, with “analysis, **P<0.01,” for “analysis,”
First, the maximum analgesic effect (MPE) was calculated, MPE (%)=100×[(pain threshold after administration−pain sensitivity value of the hind paw in surgical side)/(basic pain threshold−pain sensitivity value of the hind paw in surgical side)].

[6] = test system: gastrointestinal movement of male mice of Kunming strain; experiment: Gastrointestinal movement in vivo (activated carbon suspension); set-up: species or system mouse
Procedure: Male mice of Kunming strain, weighing 26±2 g. The commonly used toner detection method was used in the detection of astrointestinal movement in vivo. The specific experimental procedure was: before the gastrointestinal movement experiment, the mice were fasted for 16 hours (free drinking during fasting), then the drug was injected through spinal cord or subcutaneously, and after 15 minutes, the activated carbon suspension prepared in advance (a physiological saline suspension containing 5% of activated carbon and 10% gum arabic) was orally perfused into the stomach in a volume of 0.1 ml per 10 g of body weight. After 30 minutes from the perfusion of activated carbon suspension, the animals were sacrificed by cervical dislocation, and then the small intestine of the animal from the pylorus to the cecum was carefully taken out. The total lengths of the small intestine from the pylorus to the cecum and the furthest distance from which the activated carbon suspension moves were measured.
Gastrointestinal movement test results were evaluated by a percentage of gastrointestinal movement, and the percentage of gastrointestinal movement per mouse was calculated by dividing the moving distance of the activated carbon suspension by the total length of the small intestine. The relevant data were expressed as mean of the percentage of gastrointestinal movement±standard error (Means±S.E.M.), the data for differences between groups treated with different drug concentrations were analyzed by one-way ANOVA (Dunnett test in one-way ANOVA) for statistics and analysis, ***P<0.001 represented that there was a significant difference between the percentage of gastrointestinal movement of the drug-treated group and that of the saline group.

C[C@@H](NC(=O)[C@@H](N)Cc1ccc(O)cc1)C(=O)NCC(=O)N(C)[C@@H](Cc1ccccc1)C(=O)NCC(=O)N1CCC[C@H]1C(=O)N[C@@H](CCC(N)=O)C(=O)N[C@@H](CCCNC(=N)N)C(=O)N[C@@H](Cc1ccccc1)C(N)=O [Compound 9, Tyr-D-Ala-Gly-NMe-Phe-Gly-Pro-Gln-Arg-Phe-NH2] (H-Y[dA]G[NMeF]GPQRF-NH2)
conditional positional preference (mice [1]): produced significant conditional positional preference; also recorded: lower degree of preference than morphine
average number of jumps after naloxone withdrawal (mice [2]): 11.63
analgesic ED50 value, inflammatory pain ([3]; intrathecal (FIG. 15: carrageenan-induced)): 2.98 (2.50-3.54) pmol
analgesic ED50 value, inflammatory pain ([3]; lateral ventricle (FIG. 14: CFA-induced)): 5.20 (2.06-13.10) pmol
analgesic ED50 value, inflammatory pain ([3]; subcutaneous (FIG. 16: carrageenan-induced)): 3.24 (2.81-3.74) mg/kg
analgesic tolerance on continuous injection ([4]; mechanical pain, lateral ventricle 6 days or subcutaneous 7 days): not significantly different from that of the first day
cross-tolerance between compound 9 and morphine ([4]; morphine-tolerant mice given compound 9 on day 7 (lateral ventricle) or day 8 (subcutaneous)): no cross-tolerance
analgesic ED50 value, thermal hyperalgesia ([5]; intrathecal): 1.74 (1.38-2.20) pmol
analgesic ED50 value, mechanical hyperalgesia ([5]; subcutaneous): 3.51 (3.28-3.74) mg/kg
analgesic ED50 value, thermal hyperalgesia ([5]; subcutaneous): 3.12 (2.77-3.51) mg/kg
percentage of gastrointestinal movement ([6]; 10 mg/kg (compound 9 subcutaneous; morphine positive control)): 37.10%
dose with significant inhibitory effect on gastrointestinal movement ([6]; intrathecal injection): ≥ 300 pmol
percentage of gastrointestinal movement ([6]; intrathecal injection, 100 pmol): 45.71%
percentage of gastrointestinal movement ([6]; intrathecal injection, 300 pmol): 31.40%
percentage of gastrointestinal movement ([6]; intrathecal injection, 500 pmol): 21.67%
percentage of gastrointestinal movement ([6]; subcutaneous, 1 mg/kg): 47.28%
percentage of gastrointestinal movement ([6]; subcutaneous, 30 mg/kg): 33.12%
percentage of gastrointestinal movement ([6]; subcutaneous, 100 mg/kg): 24.14%
